In patent publication US11591353B2 (Mindset Pharma Inc., priority 2020, dated 2023):
pEC50, pIC50: −log10 of the molar value. Read-outs that look alike come from different tables or passages of the source.

Columns and labels:
[1] = Liver microsomes stability, human; details: for Remaining Percentage (%) after 60 min Human: 2 μM, 0.5 mg/mL microsomes
Experimental: (§1) The objective of this study was to estimate in vitro metabolic stability of I-12 in pooled human, male rat and male mouse liver microsomes. The concentrations of parent compounds in reaction systems were evaluated by LC-MS/MS for estimating the stability in pooled human, male rat and male mouse liver microsomes. The in vitro intrinsic clearances of test compounds were determined as well.
(§2) A master solution in the “Incubation Plate” containing phosphate buffer, ultra-pure H2O, MgCl2 solution and liver microsomes was made according to Table-3. The mixture was pre-warmed at 37° C. water bath for 5 minutes.
(§3) 40 μL of 10 mM NADPH solution was added to each well. The final concentration of NADPH was 1 mM. The negative control samples were prepared by replacing NADPH with 40 μL of ultra-pure H2O. Samples were prepared in duplicate. Negative controls were prepared in singlet.
(§4) The reaction was started with the addition of 4 μL of 200 μM exemplary test compounds of the application or control compounds to each master solution to get the final concentration of 2 μM. This study was performed in duplicate.
(§5) Aliquots of 50 μL were taken from the reaction solution at 0, 15, 30, 45 and 60 minutes. The reaction solutions were stopped by the addition of 4 volumes of cold methanol with IS (100 nM alprazolam, 200 nM imipramine, 200 nM labetalol and 2 μM ketoprofen). Samples were centrifuged at 3,220 g for 40 minutes. Aliquot of 90 μL of the supernatant was mixed with 90 μL of ultra-pure H2O and then was used for LC-MS/MS analysis.
(§6) LC/MS analysis was performed for all samples from this study using a Shimadzu liquid chromatograph separation system equipped with degasser DGU-20A5R; solvent delivery unit LC-30AD; system controller SIL-30AC; column oven CTO-30A; CTC Analytics HTC PAL System. Mass spectrometric analysis was performed using an Triple Quad™ 5500 instrument.
(§7) All calculations were carried out using Microsoft Excel. Peak area ratios of test compound to internal standard (listed in the below table) were determined from extracted ion chromatograms.
(§8) All calculations were carried out using Microsoft Excel. Peak areas were determined from extracted ion chromatograms. The slope value, k, was determined by linear regression of the natural logarithm of the remaining percentage of the parent drug vs. incubation time curve.
(§9) Conversion of the in vitro t1/2 (min) into the in vitro intrinsic clearance (in vitro CLint, in μL/min/mg proteins) was done using the following equation (mean of duplicate determinations): […]

[2] = Liver microsomes stability, rat; details: for Remaining Percentage (%) after 60 min Rat: 2 μM, 0.5 mg/mL microsomes
Experimental: as §1, §2, §3, §4, §5, §6, §7, §8, §9

[3] = Liver microsomes stability, mouse; details: for Remaining Percentage (%) after 60 min Mouse: 2 μM, 0.5 mg/mL microsomes
Experimental: as §1, §2, §3, §4, §5, §6, §7, §8, §9

[4] = tobacco use disorder, cited from earlier work
[5] = target: human 5-HT2A (h5-HT2A) receptor (Homo sapiens (Human), UniProt P28223); experiment: FLIPR assay, human 5-HT2A receptor under agonist mode; type: cell-based; details: agonist mode, FLIPR calcium assay; read-out: h5-HT2A EC50
Experimental: • I. Assessment of the activated effect of exemplary compounds of Formula I targeting on human 5-HT2A (h5-HT2A) receptor under agonist mode: Compound Preparation and Assay Controls I.a. Reagent and Materials:
1. Culture the cells in cell culture medium (DMEM containing 10% FBS 1× penicillin-streptomycin 300 μg/ml G418 and 100 μg/ml hygromycin B) at 37° C., 5% (v/v) CO2.
2. One day before the assays, detach the cell using TrypLE™ Express and count cells using cell counter.
3. Seed 20000 cells/well in 30 μl/well culture medium to a 384-well cell plate and incubate the cells overnight at 37° C., 5% (v/v) CO2.
4. On the assay day, prepare 2× dye solution following the manual of the FLIPR® Calcium 6 Assay Kit: i. Dilute the dye with assay buffer (20 mM HEPES in 1×HBSS, PH7.4); ii. Add probenecid to the final concentration of 5 mM; iii. Vortex vigorously for 1-2 minutes.
5. Medium from cell plate by flicking the cell plate on towel papers.
6. Add 10 μl of assay buffer and 10 μl of 2× dye solution to each well of the cell plate.
7. Put the cell plate on plate shaker, agitate the plate at 600 rpm for 2 minutes. Incubate the plate at 37° C. for 2 hours followed by additional 15-minute incubation at 25° C.
8. Prepare 3× compound in assay buffer: a. Dilute reference compounds to required concentration with DMSO. Add the compounds to a 384-well compound plate; b. Perform serial dilutions; c. Add 10 mM test compounds to the compound plate, perform 3-fold serial dilutions. d. […] Add 20 μl/well assay buffer to the compound plate; f. Mix the plate on plate shaker for 2 mins;
i. The normalized fluorescence reading (RFU) is calculated as shown follow, while Fmax and Fmin stand for maximum and minimum of calcium signal during defined time window: RFU=Fmax−Fmin
ii. Calculate the percentage activation by using following equation: […]
iii. Calculate EC50 by fitting % activation against log of compound concentrations with Hill equation using XLfit.

human 5-HT2A receptor = human 5-HT2A receptor (Homo sapiens (Human), UniProt P28223); experiment: Radioligand binding assay on human 5-HT2A receptor ([3H]-ketanserin)
Experimental: i. Prepare the assay buffer following the table below;
ii. Preparation of 8 doses of reference and test compounds starting from 10 mM stock solution as requested by 5-fold serial dilutions with 100%;
iii. […] a. Add 50 μl/well of 0.5% (v/v) PEI to UniFilter-96 GF/B plates. Seal the plates and incubate at 4° C. for 3 hrs; b. After incubation, wash the plates 3 times with ice-cold wash buffer (50 mM Tris, pH7.4);
iv. Preparation of assay plates: a. Dilute cell membrane with assay buffer and add 330 μl/well to 96 round deep well plates to reach a concentration of 20 μg/well; b. […] Dilute [3H]-ketanserin with assay buffer to 5 nM (5× final concentration) and add 110 μl/well to 96 round deep well plates.
v. Centrifuge the plate at 1000 rpm for 30 secs and then agitate at 600 rpm, R.T. for 5 min.
vii. Stop the incubation by vacuum filtration onto GF/B filter plates followed by 4 times washing with ice-cold wash buffer (50 mM Tris, pH7.4).
ix. […]
For reference and exemplary test compounds of the application, the results are expressed as % Inhibition, using the normalization equation: N=100−100×(U−C2)/(C1−C2), where U is the unknown value, C1 is the average of high controls, and C2 is the average of low controls. The IC50 is determined by fitting percentage of inhibition as a function of compound concentrations with Hill equation using XLfit.

Row | Compound | CLint (μL/min/mg protein) Human ([1]; with NADPH) | t1/2 (min) Human ([1]; with NADPH) | Remaining Percentage (%) after 60 min Human ([1]; with NADPH) | CLint (μL/min/mg protein) Rat ([2]; with NADPH) | t1/2 (min) Rat ([2]; with NADPH) | Remaining Percentage (%) after 60 min Rat ([2]; with NADPH) | CLint (μL/min/mg protein) Mouse ([3]; with NADPH) | t1/2 (min) Mouse ([3]; with NADPH) | Remaining Percentage (%) after 60 min Mouse ([3]; with NADPH) | abstinence rate ([4]; 12 months follow-up) | abstinence rate ([4]; six months follow-up) | half-life at 2 μM ([1]; human, microsomes) | microsomal CLint at 2 μM ([1]; human, microsomes) | metabolic stability in liver microsomes (in words) ([1]; human, rat and mouse liver microsomes, 60 minute) | half-life at 2 μM ([2]; male, rat, microsomes) | microsomal CLint at 2 μM ([2]; male, rat, microsomes) | half-life at 2 μM ([3]; male, mouse, microsomes) | microsomal CLint at 2 μM ([3]; male, mouse, microsomes) | pEC50 [5] | pIC50 (human 5-HT2A receptor)
1 | CN(C)CCc1c[nH]c2cccc(O)c12 [Psilocin, 4-hydroxy-N,N-dimethyltryptamine, reference compound] | 11.81 μL/min/mg protein | 117.32 min | 70.16% | 15.57 μL/min/mg protein | 89.01 min | 62.68% | 9.78 μL/min/mg protein | 141.71 min | 96.89% | – | – | – | – | – | – | – | – | – | – | –
2 | CN(C)CCc1c[nH]c2cccc(OP(=O)(O)O)c12 [psilocybin, 4-phosphoryloxy-N,N-dimethyltrypatmine] | – | – | – | – | – | – | – | – | – | 67% | 80% | – | – | – | – | – | – | – | – | –
3 | [2H]C([2H])([2H])N(C([2H])([2H])[2H])C([2H])([2H])C([2H])([2H])c1c[nH]c2cccc(OCc3ccccc3)c12 [Compound I-46, 2-(4-(benzyloxy)-1H-indol-3-yl)-N,N-bis(methyl-d3)ethan-1-amine-1,1,2,2-d4] | – | – | 58.94% | – | – | 108.23% | – | – | 44.75% | – | – | 1.31 h | 17.6 µL/min/mg | rapidly metabolized | 0.593 h | 39 µL/min/mg | 0.862 h | 26.8 µL/min/mg | 7.14 | 6.97
